Experimental data published in ChEMBL document CHEMBL3044596, “Stagonolides G-I and modiolide A, nonenolides produced by Stagonospora cirsii, a potential mycoherbicide for Cirsium arvense” (J Nat Prod, 2008).
Converted amounts (≈) assume the structure as drawn. The source made the active and inactive calls. The rule behind the calls is not given here.

Experiments:
[1] = system: Cirsium arvense; assay: Herbicidal activity against Cirsium arvense (Canada thistle) assessed as induction of leaf necrosis at 1 mg/mL measured after 2 days post compound treatment by leaf disk-puncture bioassay; format: functional, organism-based
[2] = system: Solanum lycopersicum; assay: Phytotoxicity activity against Solanum lycopersicum (tomato) assessed as leaf necrotic lesion diameter at 1 mg/mL measured after 72 hr post compound treatment by leaf disk-puncture bioassay; format: organism-based; details: in vivo
[3] = system: Cirsium arvense; assay: Herbicidal activity against Cirsium arvense (Canada thistle) assessed as leaf necrotic lesion diameter at 1 mg/mL measured after 72 hr post compound treatment by leaf disk-puncture bioassay; format: functional
[4] = system: Cichorium intybus; assay: Phytotoxicity activity against Cichorium intybus (chicory) assessed as leaf necrotic lesion diameter at 1 mg/mL measured after 72 hr post compound treatment by leaf disk-puncture bioassay; format: organism-based; details: in vivo
[5] = system: Aegopodium podagraria; assay: Phytotoxicity activity against Aegopodium podagraria (bishop's weed) assessed as leaf necrotic lesion diameter at 1 mg/mL measured after 72 hr post compound treatment by leaf disk-puncture bioassay; format: organism-based; details: in vivo
[6] = system: Radish; assay: Phytotoxicity activity against Raphanus sativus (radish) assessed as leaf necrotic lesion diameter at 1 mg/mL measured after 72 hr post compound treatment by leaf disk-puncture bioassay; format: organism-based; details: in vivo
[7] = system: Zea mays; assay: Phytotoxicity activity against Zea mays (maize) assessed as leaf necrotic lesion diameter at 1 mg/mL measured after 72 hr post compound treatment by leaf disk-puncture bioassay; format: organism-based; details: in vivo
[8] = system: Elymus repens; assay: Phytotoxicity activity against Elymus repens (couch grass) assessed as leaf necrotic lesion diameter at 1 mg/mL measured after 72 hr post compound treatment by leaf disk-puncture bioassay; format: organism-based; details: in vivo
[9] = system: Cichorium intybus; assay: Inhibition of root growth in Cichorium intybus (chicory) seedlings soaked in 1 mg/mL compound solutions for 1 hr relative to untreated control; format: functional
[10] = system: Trifolium pratense; assay: Phytotoxicity activity against Trifolium pratense (red clover) assessed as leaf necrotic lesion diameter at 1 mg/mL measured after 72 hr post compound treatment by leaf disk-puncture bioassay; format: organism-based; details: in vivo
[11] = system: Cirsium arvense; assay: Herbicidal activity against Cirsium arvense (Canada thistle) assessed as induction of leaf necrosis measured after 2 days post compound treatment by leaf disk-puncture bioassay; format: functional; details: 48 h

In the case of `C[C@@H]1C[C@H](O)/C=C\[C@@H](O)/C=C\C(=O)O1`, the Activity [1] is reported as “inactive”.
With `C[C@@H]1C[C@H](O)/C=C/[C@@H](O)/C=C\C(=O)O1` the Activity [1] was “inactive”.
In the case of `C[C@@H]1OC(=O)/C=C\[C@@H](O)/C=C/[C@@H]2O[C@H]12` [Stagonolide H], the Activity [2] is reported as < 4 mm, the Activity [3] is reported as 7.5 mm and the Activity [4] is reported as < 4 mm. The Activity [5] was < 4 mm, the Activity [1] was “Active” and the Activity [6] was < 4 mm. For the same compound, the Activity [7] was < 4 mm, the Activity [8] was < 4 mm and the “growth inhibition (GI)” value [9] was 85%. For the same compound, the Activity [10] was < 4 mm and the MIC [11] was 150 µM (≈ 29.4 µg/mL).
`C[C@H]1OC(=O)CC[C@H](O)C/C=C\[C@H]1O` was tested, and the Activity [1] was “inactive”.
